Test results: US9302999B2, “Substituted triazoles as herbicides” (E. I. DU PONT DE NEMOURS AND COMPANY, priority 2012, dated 2016)

Assays:
Assay type in all cases: in vivo
corn (Zea mays) = assay: Test A pre-/postemergence: corn
How it was run: (§1)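 Injury was scored visually on a 0 (no effect) to 100 (complete control) scale versus untreated controls roughly ten days after treatment in the greenhouse. Compounds, formulated in surfactant-containing non-phytotoxic solvent, went on as soil-directed preemergence spray or postemergence to one- to two-leaf plants 2–10 cm tall.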

[1] = test system: crabgrass, large (large crabgrass, Digitaria sanguinalis); assay: Test A pre-/postemergence: crabgrass, large
How it was run: as §1

[2] = test system: sedge, umbrella (small-flower umbrella sedge Cyperus difformis); assay: Test B flooded paddy: sedge, umbrella; details: Flood; 250 g ai/ha; applied to paddy water at 2-leaf stage; visually evaluated after 13 to 15 days
How it was run: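 Two-leaf-stage plants, pots flooded (3 cm above soil) and treated through the water, which stayed at that depth. After 13–15 days in greenhouse conditions, visual assessment versus controls: 0 is no effect, 100 complete control, dash means no result.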

[3] = test system: velvetleaf (Abutilon theophrasti); assay: Test C pre-/postemergence: velvetleaf
How it was run: (§2)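 Visual injury scored 0–100 (100 = complete control) against untreated controls after 13–15 greenhouse days. Surfactant-containing solvent formulations applied either to soil after sowing (loam/sand) or over 1- to 4-leaf plants, 2–18 cm tall.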

[4] = test system: foxtail, giant (giant foxtail, Setaria faberii); assay: Test A pre-/postemergence: foxtail, giant
How it was run: as §1

[5] = test system: lambsquarters (Chenopodium album); assay: Test C pre-/postemergence: lambsquarters
How it was run: as §2

[6] = test system: ryegrass, Italian (Italian ryegrass, Lolium multiflorum); assay: Test C pre-/postemergence: ryegrass, Italian
How it was run: as §2

[7] = test system: johnsongrass (Sorghum halepense); assay: Test C pre-/postemergence: johnsongrass
How it was run: as §2

[8] = test system: wheat (Triticum aestivum); assay: Test A pre-/postemergence: wheat; details: for Wheat plant response rating: visual rating on 0 to 100 scale (0 no effect, 100 complete control), approximately ten days
How it was run: as §1

[9] = Postemergence, 125 g ai/ha, 0 to 100 scale, 0 is no effect, 100 is complete control
[10] = Postemergence, 500 g ai/ha, visual rating on 0 to 100 scale (0 no effect, 100 complete control), approximately ten days
[11] = Preemergence, 125 g ai/ha, 0 to 100 scale where 0 is no effect and 100 is complete control
[12] = Preemergence, 500 g ai/ha, 0 to 100 scale (0 no effect, 100 complete control)
[13] = Postemergence, 31 g ai/ha, scale 0 to 100 (0 no effect, 100 complete control)
[14] = Postemergence, 62 g ai/ha, scale 0 to 100 (0 no effect, 100 complete control)
[15] = Postemergence, 125 g ai/ha, scale 0 to 100, 0 no effect, 100 complete control
[16] = Postemergence, 250 g ai/ha, scale 0 to 100
[17] = Preemergence, 31 g ai/ha, scale of 0 to 100, 0 is no effect, 100 is complete control
[18] = Preemergence, 62 g ai/ha, scale of 0 to 100, 0 is no effect, 100 is complete control
[19] = Preemergence, 125 g ai/ha, scale 0 to 100, 0 no effect, 100 complete control
[20] = Preemergence, 250 g ai/ha, scale 0 to 100, 0 no effect, 100 complete control

`CCc1nn(-c2ccc(F)cc2)nc1Cc1ccnc(C(F)(F)F)c1` [Compound 154] was tested, and the “Plant response rating, Corn” value (corn (Zea mays); [9]) was 30, the “Corn plant response rating” value (corn (Zea mays); [10]) was 80 and the “Plant response rating, Corn” value (corn (Zea mays); [11]) was 20. For the same compound, the “Plant response rating, Corn” value (corn (Zea mays); [12]) was 70, the “Plant response rating, Crabgrass, Large” value [1, 9] was 100 and the “Crabgrass, Large plant response rating” value [1, 10] was 100. For the same compound, the “Plant response rating, Crabgrass, Large” value [1, 11] was 100, the “Plant response rating, Crabgrass, Large” value [1, 12] was 100 and the “Plant response rating, Sedge, Umbrella (0 to 100 scale, 0 is no effect, 100 is complete control)” value [2] was 80. The “Plant response rating, Velvetleaf” value [3, 13] was 35, the “Plant response rating, Velvetleaf” value [3, 14] was 45 and the “Plant response rating, Velvetleaf” value [3, 15] was 55. The “Plant response rating, Velvetleaf” value [3, 16] was 65, the “Plant response rating, Velvetleaf” value [3, 17] was 5 and the “Plant response rating, Velvetleaf” value [3, 18] was 45. The “Plant response rating, Velvetleaf” value [3, 19] was 90, the “Plant response rating, Velvetleaf” value [3, 20] was 100 and the “Plant response rating, Foxtail, Giant” value [4, 9] was 90. For the same compound, the “Foxtail, Giant plant response rating” value [4, 10] was 100, the “Plant response rating, Foxtail, Giant” value [4, 11] was 100 and the “Plant response rating, Foxtail, Giant” value [4, 12] was 100. For the same compound, the “Plant response rating, Lambsquarters” value [5, 13] was 75, the “Plant response rating, Lambsquarters” value [5, 14] was 98 and the “Plant response rating, Lambsquarters” value [5, 15] was 98. For the same compound, the “Plant response rating, Lambsquarters” value [5, 16] was 98, the “Plant response rating, Lambsquarters” value [5, 17] was 100 and the “Plant response rating, Lambsquarters” value [5, 18] was 100. The “Plant response rating, Lambsquarters” value [5, 19] was 100, the “Plant response rating, Lambsquarters” value [5, 20] was 100 and the “Plant response rating, Ryegrass, Italian” value [6, 13] was 5. For the same compound, the “Plant response rating, Ryegrass, Italian” value [6, 14] was 10, the “Plant response rating, Ryegrass, Italian” value [6, 15] was 30 and the “Plant response rating, Ryegrass, Italian” value [6, 16] was 35. For the same compound, the “Plant response rating, Ryegrass, Italian” value [6, 17] was 10, the “Plant response rating, Ryegrass, Italian” value [6, 18] was 30 and the “Plant response rating, Ryegrass, Italian” value [6, 19] was 90. The “Plant response rating, Ryegrass, Italian” value [6, 20] was 90, the “Plant response rating, Johnsongrass” value [7, 13] was 10 and the “Plant response rating, Johnsongrass” value [7, 14] was 30. The “Plant response rating, Johnsongrass” value [7, 15] was 65, the “Plant response rating, Johnsongrass” value [7, 16] was 85 and the “Plant response rating, Johnsongrass” value [7, 17] was 40. The “Plant response rating, Johnsongrass” value [7, 18] was 40, the “Plant response rating, Johnsongrass” value [7, 19] was 90 and the “Plant response rating, Johnsongrass” value [7, 20] was 95. The “Plant response rating, Wheat” value [8, 9] was 20, the “Wheat plant response rating” value ([8]; Postemergence, 500 g ai/ha) was 50 and the “Plant response rating, Wheat” value [8, 11] was 0. The “Plant response rating, Wheat” value [8, 12] was 20.
For `COc1nn(-c2ccc(C(F)(F)F)cc2)nc1Cc1ccnc(C(F)F)c1` [Compound 138], the “Corn plant response rating” value (corn (Zea mays); [9]) was 50, the “Corn plant response rating” value (corn (Zea mays); [10]) was 70 and the “Plant response rating, Corn” value (corn (Zea mays); [11]) was 30. The “Plant response rating, Corn” value (corn (Zea mays); [12]) was 60, the “Crabgrass, Large plant response rating” value [1, 9] was 90 and the “Crabgrass, Large plant response rating” value [1, 10] was 90. The “Plant response rating, Crabgrass, Large” value [1, 11] was 90, the “Plant response rating, Crabgrass, Large” value [1, 12] was 90 and the “Plant response rating, Sedge, Umbrella (0 to 100 scale, 0 is no effect, 100 is complete control)” value [2] was 90. For the same compound, the “Plant response rating, Velvetleaf” value [3, 13] was 50, the “Plant response rating, Velvetleaf” value [3, 14] was 75 and the “Plant response rating, Velvetleaf” value [3, 15] was 80. The “Plant response rating, Velvetleaf” value [3, 16] was 90, the “Plant response rating, Velvetleaf” value [3, 17] was 5 and the “Plant response rating, Velvetleaf” value [3, 19] was 55. The “Plant response rating, Velvetleaf” value [3, 20] was 98, the “Foxtail, Giant plant response rating” value [4, 9] was 90 and the “Foxtail, Giant plant response rating” value [4, 10] was 90. For the same compound, the “Plant response rating, Foxtail, Giant” value [4, 11] was 100, the “Plant response rating, Foxtail, Giant” value [4, 12] was 100 and the “Plant response rating, Lambsquarters” value [5, 13] was 100. For the same compound, the “Plant response rating, Lambsquarters” value [5, 14] was 100, the “Plant response rating, Lambsquarters” value [5, 15] was 100 and the “Plant response rating, Lambsquarters” value [5, 16] was 100. For the same compound, the “Plant response rating, Lambsquarters” value [5, 17] was 95, the “Plant response rating, Lambsquarters” value [5, 18] was 98 and the “Plant response rating, Lambsquarters” value [5, 19] was 98. The “Plant response rating, Lambsquarters” value [5, 20] was 98, the “Plant response rating, Ryegrass, Italian” value [6, 13] was 40 and the “Plant response rating, Ryegrass, Italian” value [6, 14] was 55. For the same compound, the “Plant response rating, Ryegrass, Italian” value [6, 15] was 60, the “Plant response rating, Ryegrass, Italian” value [6, 16] was 75 and the “Plant response rating, Ryegrass, Italian” value [6, 17] was 10. For the same compound, the “Plant response rating, Ryegrass, Italian” value [6, 18] was 40, the “Plant response rating, Ryegrass, Italian” value [6, 19] was 70 and the “Plant response rating, Ryegrass, Italian” value [6, 20] was 90. The “Plant response rating, Johnsongrass” value [7, 13] was 45, the “Plant response rating, Johnsongrass” value [7, 14] was 45 and the “Plant response rating, Johnsongrass” value [7, 15] was 45. For the same compound, the “Plant response rating, Johnsongrass” value [7, 16] was 95, the “Plant response rating, Johnsongrass” value [7, 17] was 45 and the “Plant response rating, Johnsongrass” value [7, 18] was 85. The “Plant response rating, Johnsongrass” value [7, 19] was 98, the “Plant response rating, Johnsongrass” value [7, 20] was 100 and the “Plant response rating, Wheat” value [8, 9] was 50. For the same compound, the “Wheat plant response rating” value ([8]; Postemergence, 500 g ai/ha) was 60, the “Plant response rating, Wheat” value [8, 11] was 30 and the “Plant response rating, Wheat” value [8, 12] was 60.
In the case of `CCc1nn(-c2ccc(C(F)(F)F)cc2)nc1Cc1ccnc(C(F)(F)F)c1` [Compound 155], the “Plant response rating, Corn” value (corn (Zea mays); [9]) is reported as 40, the “Corn plant response rating” value (corn (Zea mays); [10]) is reported as 70 and the “Plant response rating, Corn” value (corn (Zea mays); [11]) is reported as 60. For the same compound, the “Plant response rating, Corn” value (corn (Zea mays); [12]) was 80, the “Plant response rating, Crabgrass, Large” value [1, 9] was 100 and the “Crabgrass, Large plant response rating” value [1, 10] was 100. The “Plant response rating, Crabgrass, Large” value [1, 11] was 100, the “Plant response rating, Crabgrass, Large” value [1, 12] was 100 and the “Plant response rating, Sedge, Umbrella (0 to 100 scale, 0 is no effect, 100 is complete control)” value [2] was 80. For the same compound, the “Plant response rating, Velvetleaf” value [3, 13] was 50, the “Plant response rating, Velvetleaf” value [3, 14] was 60 and the “Plant response rating, Velvetleaf” value [3, 15] was 75. The “Plant response rating, Velvetleaf” value [3, 16] was 80, the “Plant response rating, Velvetleaf” value [3, 17] was 30 and the “Plant response rating, Velvetleaf” value [3, 18] was 80. For the same compound, the “Plant response rating, Velvetleaf” value [3, 19] was 85, the “Plant response rating, Velvetleaf” value [3, 20] was 100 and the “Plant response rating, Foxtail, Giant” value [4, 9] was 90. The “Foxtail, Giant plant response rating” value [4, 10] was 100, the “Plant response rating, Foxtail, Giant” value [4, 11] was 100 and the “Plant response rating, Foxtail, Giant” value [4, 12] was 100. The “Plant response rating, Lambsquarters” value [5, 13] was 80, the “Plant response rating, Lambsquarters” value [5, 14] was 95 and the “Plant response rating, Lambsquarters” value [5, 15] was 98. For the same compound, the “Plant response rating, Lambsquarters” value [5, 16] was 98, the “Plant response rating, Lambsquarters” value [5, 17] was 90 and the “Plant response rating, Lambsquarters” value [5, 18] was 100. For the same compound, the “Plant response rating, Lambsquarters” value [5, 19] was 100, the “Plant response rating, Lambsquarters” value [5, 20] was 100 and the “Plant response rating, Ryegrass, Italian” value [6, 13] was 35. For the same compound, the “Plant response rating, Ryegrass, Italian” value [6, 14] was 45, the “Plant response rating, Ryegrass, Italian” value [6, 15] was 65 and the “Plant response rating, Ryegrass, Italian” value [6, 16] was 70. The “Plant response rating, Ryegrass, Italian” value [6, 17] was 35, the “Plant response rating, Ryegrass, Italian” value [6, 18] was 85 and the “Plant response rating, Ryegrass, Italian” value [6, 19] was 85. For the same compound, the “Plant response rating, Ryegrass, Italian” value [6, 20] was 90, the “Plant response rating, Johnsongrass” value [7, 13] was 20 and the “Plant response rating, Johnsongrass” value [7, 14] was 80. For the same compound, the “Plant response rating, Johnsongrass” value [7, 15] was 98, the “Plant response rating, Johnsongrass” value [7, 16] was 98 and the “Plant response rating, Johnsongrass” value [7, 17] was 80. The “Plant response rating, Johnsongrass” value [7, 18] was 90, the “Plant response rating, Johnsongrass” value [7, 19] was 90 and the “Plant response rating, Johnsongrass” value [7, 20] was 95. For the same compound, the “Plant response rating, Wheat” value [8, 9] was 40, the “Wheat plant response rating” value ([8]; Postemergence, 500 g ai/ha) was 80 and the “Plant response rating, Wheat” value [8, 11] was 10. For the same compound, the “Plant response rating, Wheat” value [8, 12] was 70.
